Results from patent US12150981B2, “Chimeric antigen receptor-expressing T cells as anti-cancer therapeutics” (Purdue Research Foundation, priority 2012, dated 2024).

Columns and labels:
[1] = tested on: folate receptor (FR) on L1210A cells; experiment: Binding of FITC-Folate conjugates to FR positive L1210A cancer cells, fluorescence/confocal microscopy; design: species or system mouse
Description: (§1) The ability of the FITC-Folate and FITC-(PEG)12-Folate conjugates to bind folate receptor (FR) positive cancer cells was next investigated. FR positive cells lines L1210A (Mouse lymphocytic leukemia) and KB (Mouth epidermal carcinoma), which are FR positive cell lines, were used to test the binding affinity of the FITC-Folate conjugates. Briefly, 3-4×10^4 cancer cells were prepared to perform binding affinity assays with FITC-Folate and FITC-(PEG)12-Folate conjugates. With two different concentrations (e.g. 20 nM, 70 nM), the two FITC-Folate conjugates were incubated with cancer cells at room temperature for 1 hour. Since both FITC-Folate conjugates have fluorescence, the binding ability of FITC-Folate conjugates to cancer cells can be detected by florescence microscopy. After two washes with 1× phosphate buffered saline (PBS) to remove all unbound compound, the cancer cells were observed by confocal microscope. In order to specify whether FITC-Folate conjugates bind to cancer cells via FR on the surface of cancer cells, Folate Acid was also incubated with cancer cells as a competition compound. […] As shown in competition panel, addition of 50× excess folate acid blocked FITC-Folate binding with these cancer cells, which indicates the specific binding is between folate acid and FR on cell surface.

[2] = molecular target: T1, folate receptor (FR) on KB cells (Homo sapiens, UniProt P15328); experiment: Binding of FITC-Folate conjugates to FR positive KB cancer cells, fluorescence/confocal microscopy
T1 construct: endogenous in cells; host or cells: KB cells
T1 sequence (P15328 25-234): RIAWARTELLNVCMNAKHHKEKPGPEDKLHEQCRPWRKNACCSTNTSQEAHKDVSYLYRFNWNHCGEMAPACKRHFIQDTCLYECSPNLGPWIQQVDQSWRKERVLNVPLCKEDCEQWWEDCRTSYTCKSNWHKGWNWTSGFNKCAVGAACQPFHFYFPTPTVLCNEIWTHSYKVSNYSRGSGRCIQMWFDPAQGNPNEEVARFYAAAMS
Description: as §1

FR+ L1210A cells = experiment: 51Chromium release cytotoxicity assay of anti-FITC CAR-expressing T cells against L1210A cells; type: cell-based, mouse; details: 70 nM conjugate, effector:target 20:1, 4-10 hours
Description: In order to explore whether CAR-expressing T cells can kill cancer cells, ^51Chromium release assays were conducted. In this assay, cancer cells are labeled with ^51Cr. When cancer cells are lysed, ^51Cr would be released from cancer cells to supernatant. By measuring ^51Cr in supernatant, the number of cancer cells killed can be determined.
First, target cancer cells L1210A were incubated in 50 μL growth medium containing 50 μCi ^51Chromium to get labeled. After washing with PBS×3, L1210A cells were resuspended and incubated at 37° C. for 1 hour in the growth medium containing 70 nM FITC-Folate conjugate or FITC-(PEG)12-Folate conjugate. After washing away excess FITC conjugates, 5×10^3 target cancer cells were added in each well of 96-well plates. […] After incubation for 4-10 hours, 20 μL aliquots of cell-free supernatant were harvested and ^51Cr in the supernatants was measured with a scintillation counter or a γ-counter.
Percent specific cytolysis was calculated using following formula: % cytolysis=(Experimental ^51Cr release−control ^51Cr release)/(Maximum ^51Cr release−control ^51Cr release)×100
Control wells contained only target cancer cells, effector T cells were never added in these wells. Maximum ^51Cr release was determined by measuring ^51Cr release from labeled target cells treated with 2.5% SDS to lyse all cells.

FR+ KB cells = experiment: 51Chromium release cytotoxicity assay of anti-FITC CAR-expressing T cells against KB cells; type: cell-based, human; details: 70 nM conjugate, effector:target 20:1, 4-10 hours
[3] = tested on: anti-FITC scFv in CAR4-1BBZ on transduced T cells; experiment: Binding of FITC-Folate conjugates to CAR4-1BBZ transduced T cells, confocal microscopy; design: species or system mouse
Description: To examine the ability of the transduced T cells containing CAR4-1BBZ to bind the FITC-Folate conjugates, binding assays with the FITC-Folate conjugate and the FITC-(PEG)12-Folate conjugate were performed. Since the excitation wavelength of FITC in the FITC-Folate conjugates overlapped with copGFP in CAR4-1BB transduced T cells, it was difficult to distinguish between FITC binding and copGFP expression. Therefore, an anti-Folate Acid (FA) monoclonal antibody and a fluorephore (excitation 640 nm)-labeled anti-mouse IgG antibody were utilized.
First, the transduced T cells were incubated with FITC-Folate or FITC-(PEG)12-Folate conjugates at room temperature for 1 hour. After washing with 1×PBS, transduced T cells were incubated with anti-FA monoclonal antibody (1:15 dilution) for 1 hour. After another washing with 1×PBS, transduced T cells further were incubated with fluorophore (excitation 640 nm) labeled anti-mouse IgG antibody (1:50 dilution). Finally, unbound antibodies were washed away and a confocal microscope was used to confirm the FITC-Folate and FITC-(PEG)12-Folate conjugates binding ability. All data was analyzed by Olympus Fluoview software. […] Simultaneously, binding of FITC-Folate and FITC-(PEG)12-Folate conjugates (arrows) were also detected on the CAR4-1BBZ transduced T cells.

[4] = tested on: PSMA-positive human prostate cancer cells; details: DUPA-(99m)Tc, ref [8]; cited from earlier work
[5] = 20 nM, 70 nM, room temperature 1 hour

SMILES	binding to L1210A cells via FR [1, 5]	binding to L1210A cells in the presence of competitor ([1]; 50× excess folate acid)	binding to KB cells via FR [2, 5]	binding to KB cells in the presence of competitor ([2]; 50× excess folate acid)	cellular localization in KB cells (internalization) ([2]; FIG. 3A, 3C)	cancer cell cytolysis by CAR-expressing T cells in the presence of conjugate (FR+ L1210A cells) [%]	cancer cell cytolysis by CAR-expressing T cells in the presence of conjugate (FR+ KB cells) [%]	binding to non-transduced T cells ([3]; non-transduced T cells, same protocol)	binding to anti-FITC in CAR4-1BBZ transduced T cells ([3]; room temperature 1 hour, detected with anti-FA antibody and labeled anti-mouse IgG)	Kd [4] [nM]
Nc1nc2ncc(CNc3ccc(C(=O)N[C@@H](CCC(=O)NCCNC(=S)Nc4ccc(-c5c6ccc(=O)cc-6oc6cc(O)ccc56)c(C(=O)O)c4)C(=O)O)cc3)nc2c(=O)[nH]1 (single isomer, unassigned) [FITC-Folate]	can bind	blocked	can bind	blocked	internalized into KB cell cytoplasm	~29	~18	not to non-transduced T cells	successfully bound	–
O=C(O)CCC(NC(=O)NC(CCC(=O)O)C(=O)O)C(=O)O (stereo not shown) [DUPA, 2-[3-(1,3-dicarboxypropyl)ureido] pentanedioic acid]	–	–	–	–	–	–	–	–	–	14
